The source of these data is publication PMC9225965 (Bioorganic & Medicinal Chemistry Letters, 2022).

A value given as a limit tells only on which side of the number the result lay.

The target of one experiment is SARS-CoV-2 M^pro (Severe acute respiratory syndrome coronavirus 2, UniProt P0DTD1). Briefly: biochemical. The note with it: for inhibition at 50 µM: read-out: M^pro inhibition.
The subject of the next experiment is SARS-CoV-2 main protease. The note with it: read-out: reported IC50; similar FRET-based assays; cited from earlier work.

In general, inhibition refers to the percentage by which the read-out fell short of the control. In general, IC50 refers to the concentration at which inhibition is half-maximal.

As for `O=C(CSc1nc2cc(Cl)ccc2n1Cc1ccccc1)N1CCNC1=O` [Compound 8], the “activity in the presence of Triton-X (aggregation control)” value at SARS-CoV-2 M^pro (IC50 experiment repeated with 0.02 % Triton-X in reaction buffer) is given as “not attenuated”. The inhibition at 50 µM at SARS-CoV-2 M^pro was above 50%.
Take `COCCn1c(C(=O)NCC(O)c2ccccc2)nc2ccccc2c1=O` (stereo not shown) [Compound 10]: the inhibition at 50 µM on SARS-CoV-2 M^pro is above 50%.
For the molecule `CC(C)(C)NC(=O)N[C@H](C(=O)N1C[C@H]2[C@@H]([C@H]1C(=O)NC(CC1CCC1)C(=O)C(N)=O)C2(C)C)C(C)(C)C` (stereo partly shown) [boceprevir], in the experiment with SARS-CoV-2 main protease, the IC50 was […].
